{"source": "patent US20240058331A1", "about": "“COMBINATION THERAPIES FOR TREATMENT OF CIRRHOSIS WITH PORTAL HYPERTENSION” (priority 2022, published 2024)", "origin": "cited, not measured here", "key": {"[1]": {"conditions": "sedation for HVPG assessment"}, "ETB": {"molecular_target": "T1, ETB (Homo sapiens, UniProt P24530)", "T1 sequence (P24530 27-442)": "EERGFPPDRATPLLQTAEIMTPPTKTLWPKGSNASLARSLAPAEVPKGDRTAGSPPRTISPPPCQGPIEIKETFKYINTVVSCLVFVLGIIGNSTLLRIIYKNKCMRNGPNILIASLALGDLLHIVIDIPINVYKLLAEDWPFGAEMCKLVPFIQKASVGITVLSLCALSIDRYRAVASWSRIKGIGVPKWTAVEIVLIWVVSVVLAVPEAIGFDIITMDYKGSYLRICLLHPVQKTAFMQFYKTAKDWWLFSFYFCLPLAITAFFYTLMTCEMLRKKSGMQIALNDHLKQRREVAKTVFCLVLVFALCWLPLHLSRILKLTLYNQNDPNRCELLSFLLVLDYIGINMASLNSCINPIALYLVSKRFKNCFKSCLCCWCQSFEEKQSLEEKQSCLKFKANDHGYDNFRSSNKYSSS", "conditions": "up to 50 mM"}, "[2]": {"conditions": "unlikely to be clinically relevant with standard midazolam dosing"}, "[3]": {"conditions": "moderate hepatic impairment vs healthy control participants; expected"}}, "data": [{"smiles": "CCOc1ccc(Cc2cc([C@@H]3O[C@H](CO)[C@@H](O)[C@H](O)[C@H]3O)ccc2Cl)cc1", "note": "[Dapagliflozin]", "values": [{"measurement": "safety or tolerability signals in participants with renal impairment", "setting": "10 mg once daily, chronic kidney disease (DAPA-CKD) and heart failure (DAPA HF) populations", "value": "did not lead to any unique safety or tolerability signals"}, {"measurement": "tolerability in healthy volunteers", "setting": "doses up to 100 mg for 14 days", "value": "tolerable"}]}, {"smiles": "Cc1ncc2n1-c1ccc(Cl)cc1C(c1ccccc1F)=NC2", "note": "[Midazolam]", "values": [{"measurement": "influence on HVPG", "setting": "[1]", "value": "does not influence HVPG"}]}, {"smiles": "COc1nc(C)cnc1NS(=O)(=O)c1cccnc1-c1ccc(-c2nnco2)cc1", "note": "[Zibotentan]", "values": [{"measurement": "effect at the ETB", "setting": "ETB", "value": "no effect"}, {"measurement": "increase in midazolam exposure", "setting": "[2]", "value": 20, "unit": "%"}, {"measurement": "exposure, times higher in participants with moderate hepatic impairment compared to healthy control participants", "setting": "[3]", "value": 1.45, "unit": "times"}]}]}
